Literature values, collected in US20110302824A1, “PROCESS FOR LIQUEFYING A CELLULOSIC MATERIAL” (SHELL OIL COMPANY, priority 2010, published 2011).

Conditions: polarity of the (co-)solvent of the liquefaction medium; octanol-water

SMILES	Solvent Log P
CCCCCCCCCCCC [w/C12, dodecane]	6.1
CC1CCC(=O)O1 (centres unmarked) [w/gVL, gamma-valerolactone]	−0.6
